# Assay results: patent publication US6329378A, “Hydrazone, hydrazine and thiosemicarbazone derivatives as antifungal agents” (Anadys Pharmaceuticals, Inc., priority 2000, dated 2001)
# Columns and labels:
# A. Nidulans = assay: MIC, broth microdilution (NCCLS M27-A), A. nidulans; type: cell-based; settings: 35° C., 48 hours; for MIC: Aspergillus nidulans
# Method: (§1) Compounds of the invention were tested for antifungal susceptibility using broth microdilution assay established by the National Committee for Clinical Laboratory Standards, in NCCLS Document M27-A, which is hereby incorporated by reference. Minimum inhibitory concentrations (MICs) and minimum fungicidal concentrations (MFCs) were measured.
# Filamentous fungi (Aspergillus spp.) is cultured on PDA plates in a 35° C. incubator. Inoculum of Aspergillus for susceptibility testing is prepared from plates incubated at 35° C. for 5 days. Colonies are covered with 5 ml of sterile 0.85% saline (8.5 g/liter NaCl) and gently rocked for 10-15 minutes. To dislodge the conidia, an automatic pipettor is used to gently wash over the colonies. The saline solution is removed from the plate and the heavy particles are allowed to settle for 3-5 minutes. The upper suspension is removed and vortexed for 15 sec. The turbidity of the solution is determined by measuring the absorbance in a spectrophotometer (Shimadzu UV-1201S UV-VIS Spectrophotometer) set at 600 nm. An absorbance value between 0.1 and 0.4 is required for an accurate reading.
# The cell suspension is diluted with the appropriate medium (typically RPMI-1640) to OD600 =0.0004. The final suspension should contain approximately 3×10^3 cfu per ml (this is a 2×concentrationinoculum). Two 100 μl aliquots of this dilution are spread on SDA plates and incubated at 35° C. for 1-2 days to determine the precise number of colony forming units. An acceptable range for the inoculum (2×) is 1-5×10^3 cfu/ml (100-500 for 100 μl). Following two-fold dilution of the inoculum with compound, the final concentration of cells will be 0.5-2.5×10^3 per ml. The inoculum is kept at 4° C. and used within a few hours.
# (§2) Stock solutions and concentrations tested will vary from compound to compound. In general, though, stock solutions of 12.8 mg/ml in DMSO (Sigma D-8779) are prepared. This will allow for a 128 μg/ml starting test concentration containing 1% DMSO. Stock solutions are stored at -20° C. and dilutions for antifungal testing are freshly prepared before each assay.
# (§3) Stock solutions of Amphotericin B and Itraconazole are prepared at 1.6 mg/ml in DMSO. Amphotericin B is sold as a powder that is approximately 80% Amphotericin B. Stock solutions are made accordingly (2.0 mg of powder for a 1 ml solution of 1.6 mg/ml Amphotericin B).
# (§4) Both of these (control and test compounds) represent 1:50 dilutions. For an assay with three fungal strains, 40 microliters of a stock solution are diluted to 2.0 ml with room temperature medium.
# (§5) Antifungal susceptibility tests are setup in polystyrene, 96-well, flat bottom plates (Costar 9017). To every well in columns 2-12 is added 100 microliters of media. An electronic multichannel (12) pipettor with no tip on channel one is used. To every well in column one is added 200 microliters of diluted compound (32 μg/ml for Amphotericin B and Itraconazole controls, 256 μg/ml for test compounds, 100-fold dilution for natural product extracts). A manual multichannel (8) pipettor is then used to set up a series of 2-fold dilutions. 100 microliters is removed from each well of column one and mixed with 100 microliters in column 2. This is done successively (column two to column three etc.) to produce a set of 11 serial dilutions (column 12 is a drug free control).
# (§6) To every well in two rows, 100 μl of inoculum (2×) of a single strain is added. To the final two rows on the plate (G & H), only media is added. Addition of inoculum is best accomplished using an electronic multichannel (12) pipettor. This setup (see below) creates a starting cell density of […] (100-500 per well) and drug concentration ranging from 16 μg/ml to […] for controls (Amphotericin B and Itraconazole), 128 μg/ml to 0.125 μg/ml for pure test compounds, and 200 to 204, 800-fold dilutions for natural product extracts.
# C. albicans = assay: MIC, broth microdilution (NCCLS M27-A), C. albicans; type: cell-based, Candida albicans; settings: 48 hours, C. albicans ATCC 10231; for MIC C. albicans: 35° C.; for MIC: Candida albicans, ATCC10231, 35° C.
# Method: as §1
# (§7) Yeasts (Saccharomyces cerevisiae and Candida albicans) are cultured on SDA plates in a 35° C. incubator. Strains on SDA plates are stored at 4° C. and used as working stock cultures.
# (§8) Inoculum for susceptibility testing is prepared from fresh 24 hour cultures. 5-10 colonies are scraped from the plate and suspended in three milliliters of sterile 0.85% saline (8.5 g/liter NaCl). The cell density of the solution is determined by measuring the absorbance in a spectrophotometer (Shimadzu UV-1201S UV-VIS Spectrophotometer) set at 600 nm. An absorbance value between 0.1 and 0.4 is required for an accurate reading.
# (§9) For Candida albicans strains ATCC 10231, 1.0 OD600 unit is approximately 10^7 cells per ml. For Saccharomyces cerevisiae strain CTY552, 1.0 OD600 unit is slightly less than 10^7 cells per ml. Cell suspensions are diluted with the appropriate medium (typically RPMI-1640) to OD600 =0.0003 for Candida and OD600 =0.0004 for Saccharomyces. The diluted suspension contains approximately 3×10^3 cells per ml (this is a 2×concentration inoculum). Two 100 μl aliquots of this dilution are spread on SDA plates and incubated at 35° C. for 1-2 days to determine the precise number of colony forming units. An acceptable range for the inoculum (2×) is 1-5×10^3 cfu/ml (100-500 for 100 μl). Following two-fold dilution of the inoculum with compound, the final concentration of cells will be 0.5-2.5×10^3 per ml. The inoculum is kept at 4° C. and used within a few hours.
# as §2, §3, §4, §5, §6
# S. serevisiae = assay: MIC, broth microdilution (NCCLS M27-A), S. cerevisiae; type: cell-based, Saccharomyces cerevisiae; settings: for MIC S. serevisiae: broth microdilution, 35° C., 48 hours, S. cerevisiae CTY552; for MIC: Saccharomyces cerevisiae, 48 h, read-out: MIC S. serevisiae
# Method: as §1, §7, §8, §9, §2, §3
# Stock solutions of control compounds (1.6 mg/ml, Amphotericin B or Itraconazole) are initially diluted in medium to a concentration of 32 μg/ml while stock solutions of test compounds (typically 12.8 mg/ml) are diluted to 256 μg/ml. Both of these (control and test compounds) represent 1:50 dilutions. For an assay with three fungal strains, 40 microliters of a stock solution are diluted to 2.0 ml with room temperature medium.
# as §5
# To every well in two rows, 100 μl of inoculum (2×) of a single strain is added. To the final two rows on the plate (G & H), only media is added. Addition of inoculum is best accomplished using an electronic multichannel (12) pipettor. […]
Compound,MIC A. Nidulans (A. Nidulans),MIC C. albicans (C. albicans),MIC S. serevisiae (S. serevisiae),MIC (A. Nidulans),MIC (C. albicans),MIC (S. serevisiae)
2-pyridyl-benzaldehyde-N-(3-methoxy-2-pyrazinyl)hydrazine [(34)],1 µg/mL,2 µg/mL,1 µg/mL,,,
3-carboxyl-2-hydroxybenzaldehyde-N-(3-methoxy-2-phenyl)hydrazine [(17)],> 128 µg/mL,> 128 µg/mL,> 128 µg/mL,,,
COc1cc(O)c(C=NNc2nccnc2OC)c(OC)c1 [(5)],,,,2 µg/mL,1 µg/mL,1 µg/mL
COc1nccnc1NN=Cc1cccc(O)c1O [(6)],,,,1 µg/mL,2 µg/mL,1 µg/mL
COc1nccnc1NN=Cc1ccc(O)cc1O [(7)],,,,2 µg/mL,1 µg/mL,1 µg/mL
COc1nccnc1N/N=C/c1ccc(O)c(O)c1O [(8)],,,,> 128 µg/mL,4 µg/mL,2 µg/mL
COc1nccnc1N/N=C/c1ccc2ccccc2n1 [(9)],,,,16 µg/mL,8 µg/mL,8 µg/mL
"O=C(O)c1ccc(O)c(C=NNc2ccccc2)c1 [(18), 5-carboxyl-2-hydroxybenzaldehyde-N-phenyl hydrazone]",,,,0.125 µg/mL,1 µg/mL,1 µg/mL
"Oc1ccccc1C=NNc1ccccc1 [(19), 2-hydroxybenzaldehyde-N-phenyl hydrazone]",,,,0.125 µg/mL,1 µg/mL,1 µg/mL
"O=C(O)c1ccc(O)c(C=NNc2cccc([N+](=O)[O-])c2)c1 [(20), 5-carboxyl-2-hydroxybenzaldehyde-N-3-nitro-phenyl hydrazone]",,,,2 µg/mL,8 µg/mL,16 µg/mL
"O=C(O)c1ccc(O)c(C=NNc2ccccc2OC(F)(F)F)c1 [(21), 5-carboxyl-2-hydroxybenzaldehyde-N-2-trifluoromethyloxy-phenyl hydrazone]",,,,1 µg/mL,2 µg/mL,1 µg/mL
"O=C(O)c1ccc(O)c(C=NNc2ccccc2C(=O)O)c1 [(22), 5-carboxyl-2-hydroxybenzaldehyde-N-2-carboxyl-phenyl hydrazone]",,,,> 64 µg/mL,> 64 µg/mL,> 64 µg/mL
"O=C(O)c1ccc(O)c(C=NNc2cccc(F)c2)c1 [(23), 5-carboxyl-2-hydroxybenzaldehyde-N-3-fluorophenyl hydrazone]",,,,0.125 µg/mL,2 µg/mL,2 µg/mL
"O=C(O)c1ccc(O)c(C=NNc2ccccc2F)c1 [(24), 5-carboxyl-2-hydroxybenzaldehyde-N-2-fluoro-phenyl hydrazone]",,,,0.063 µg/mL,0.25 µg/mL,0.5 µg/mL
"O=C(O)c1ccc(O)c(C=NNc2ccccc2Br)c1 [(25), 5-carboxyl-2-hydroxybenzaldehyde-N-2-bromophenyl hydrazone]",,,,1 µg/mL,2 µg/mL,2 µg/mL
"O=C(O)c1ccc(O)c(C=NNc2ccccc2Cl)c1 [(26), 5-carboxyl-2-hydroxybenzaldehyde-N-2-chlorophenyl hydrazone]",,,,0.5 µg/mL,2 µg/mL,1 µg/mL
"Cc1cccc(NN=Cc2cc(C(=O)O)ccc2O)c1 [(27), 5-carboxyl-2-hydroxybenzaldehyde-N-3-methyl-phenyl hydrazone]",,,,0.25 µg/mL,1 µg/mL,1 µg/mL
"COc1ccccc1NN=Cc1cc(C(=O)O)ccc1O [(28), 5-carboxyl-2-hydroxybenzaldehyde-N-2-methoxy-phenyl hydrazone]",,,,0.25 µg/mL,1 µg/mL,1 µg/mL
"Cc1c(Cl)cccc1NN=Cc1cc(C(=O)O)ccc1O [(29), 5-carboxyl-2-hydroxybenzaldehyde-N-3-chloro-2-methyl-phenyl hydrazone]",,,,1 µg/mL,1 µg/mL,1 µg/mL
"O=C(O)c1ccc(O)c(C=NNc2cccc(Cl)c2)c1 [(30), 5-carboxyl-2-hydroxybenzaldehyde-N-3-chloro-phenyl hydrazone]",,,,0.5 µg/mL,2 µg/mL,1 µg/mL
Oc1ccccc1CNNc1ccccc1 [(32)],,,,0.125 µg/mL,1 µg/mL,2 µg/mL
COc1nccnc1NNCc1ccccc1O [(33)],,,,4 µg/mL,2 µg/mL,1 µg/mL
FC(F)(F)c1cc(NC(=S)N/N=C/c2ccccn2)cc(C(F)(F)F)c1 [(37)],,,,1 µg/mL,0.5 µg/mL,1 µg/mL
Fc1ccc(NC(=S)N/N=C/c2ccccn2)cc1 [(39)],,,,4 µg/mL,2 µg/mL,2 µg/mL
Oc1ccccc1/C=N/NC(=S)Nc1cccc(F)c1 [(40)],,,,> 128 µg/mL,32 µg/mL,2 µg/mL
S=C(N/N=C/c1ccccn1)Nc1ccccc1 [(41)],,,,> 128 µg/mL,> 128 µg/mL,> 128 µg/mL
COC(=O)c1ccc(COc2ccc(/C=N/NC(=S)Nc3cccc(C(F)(F)F)c3)c(O)c2)cc1 [(43)],,,,0.25 µg/mL,0.5 µg/mL,0.5 µg/mL
"Oc1cc(OCc2ccccc2)ccc1/C=N/NC(=S)Nc1ccc(Cl)cc1 [(45), N-[(4-chloro-phenyl)]-2-[(E)-(4-benzyloxy-2-hydroxyphenyl)methylidene]-1-hydrazonecarbothiamide]",,,,0.5 µg/mL,1 µg/mL,0.5 µg/mL
COC(=O)c1ccc(COc2ccc(/C=N/NC(=S)Nc3ccc(Cl)cc3)c(O)c2)cc1 [(46)],,,,0.25 µg/mL,1 µg/mL,0.25 µg/mL
N-[(4-dimethylamino)sulfonyl-N-piperidyl)phenyl)]-2-[(E)-(4-benzyloxy-2-hydroxyphenyl)methylidene]-1-hydrazonecarbothiamide [(52)],> 64 µg/mL,> 64 µg/mL,,,,
